Reference: patent publication US12209102B2, “Heterocyclic compounds and uses thereof” (Kumquat Biosciences Inc., priority 2022, dated 2025)

Columns and labels:
A549 cells = assay: Ras cellular assay, growth of cells with K-Ras G12S mutation (CellTiter-Glo); assay type: cell-based; conditions: Homo sapiens, cell growth, Example 9, G12S mutation, read-out: IC50 against A549 cells
In short: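 Growth inhibition IC50 values come from four-parameter fits of CellTiter-Glo luminescence, read about 6 days after compound addition. G12S-mutant A549 cells (e.g. 800/well, RPMI-1640 + 10% heat-inactivated FBS) were plated in tissue-culture-treated or ultra-low-attachment 384-well format. Dosing began the following day with serial dilutions, e.g. 10 points, 3-fold.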

K-Ras G12V = biological target: T1, K-Ras G12V (Homo sapiens, UniProt P01116, G12V); assay: HTRF resonance energy transfer assay, K-Ras G12V / SOS1 interaction; assay type: biochemical; conditions: HTRF assay of Example 5; read-out: IC50 against K-Ras G12V
T1 construct: made in house; host or cells: E. coli BL21 (DE3)
In short: (§1)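 Compounds, tested in duplicate at 10 μM down to 0.01 μM, were read after about 10 min or more by HTRF as the 665/620 nm emission ratio (337 nm excitation) to derive IC50. This ratio reports FRET between an anti-GST-Eu donor on GST-K-Ras (wild-type or mutant) and an anti-6His-XL665 acceptor on His-hSOS1. Buffer: ~5 mM HEPES pH 7.4, 150 mM NaCl, 1 mM DTT, 0.05% BSA, 0.0025% Igepal.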

SW620 cells = assay: Ras cellular assay, growth of cells with K-Ras G12V mutation (CellTiter-Glo); assay type: cell-based; conditions: Homo sapiens, SW-620; cell growth, Example 9, G12V mutation; read-out: IC50 against SW620 cells
In short: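 IC50 values came from a four-parameter fit of CellTiter-Glo viability, read roughly 6 days after dosing with e.g. a 10-point threefold dilution series. G12V-mutant SW620 cells (e.g. 800 per well) had been plated the previous day in RPMI-1640/10% heat-inactivated FBS, on tissue culture-treated or ultra-low attachment plates.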

K-Ras G12S = biological target: T2, K-Ras G12S (Homo sapiens, UniProt P01116, G12S); assay: HTRF resonance energy transfer assay, K-Ras G12S / SOS1 interaction; assay type: biochemical; conditions: HTRF assay of Example 5; read-out: IC50 against K-Ras G12S
T2 construct: made in house; host or cells: E. coli BL21 (DE3)
In short: as §1

K-Ras G12D = biological target: T3, K-Ras G12D (Homo sapiens, UniProt P01116, G12D); assay: HTRF resonance energy transfer assay, K-Ras G12D / SOS1 interaction; assay type: biochemical; conditions: HTRF assay of Example 5; read-out: IC50 against K-Ras G12D
T3 construct: made in house; host or cells: E. coli BL21 (DE3)
In short: as §1

K-Ras WT = biological target: T4, K-Ras WT (Homo sapiens, UniProt P01116); assay: HTRF resonance energy transfer assay, K-Ras WT / SOS1 interaction; assay type: biochemical; conditions: HTRF assay of Example 5; read-out: IC50 against K-Ras WT
T4 construct: made in house; host or cells: E. coli BL21 (DE3)
In short: as §1

GP2D cells = assay: Ras cellular assay, growth of cells with K-Ras G12D mutation (CellTiter-Glo); assay type: cell-based; conditions: cell growth, Example 9, G12D mutation, read-out: IC50 against GP2D cells

T3 sequence (P01116 1-188 isoform P01116-2 G12D): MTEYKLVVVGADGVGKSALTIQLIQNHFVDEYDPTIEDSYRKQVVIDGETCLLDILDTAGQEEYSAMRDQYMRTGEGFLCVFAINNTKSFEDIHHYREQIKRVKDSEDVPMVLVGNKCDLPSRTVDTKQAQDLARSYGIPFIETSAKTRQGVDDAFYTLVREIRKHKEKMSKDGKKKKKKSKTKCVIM
T2 sequence (P01116 1-188 isoform P01116-2 G12S): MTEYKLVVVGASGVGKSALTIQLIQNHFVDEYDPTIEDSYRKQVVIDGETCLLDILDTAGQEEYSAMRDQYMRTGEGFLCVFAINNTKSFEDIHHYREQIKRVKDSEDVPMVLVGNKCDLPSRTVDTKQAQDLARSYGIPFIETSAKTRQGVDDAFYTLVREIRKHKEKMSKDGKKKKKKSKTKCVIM
T1 sequence (P01116 1-188 isoform P01116-2 G12V): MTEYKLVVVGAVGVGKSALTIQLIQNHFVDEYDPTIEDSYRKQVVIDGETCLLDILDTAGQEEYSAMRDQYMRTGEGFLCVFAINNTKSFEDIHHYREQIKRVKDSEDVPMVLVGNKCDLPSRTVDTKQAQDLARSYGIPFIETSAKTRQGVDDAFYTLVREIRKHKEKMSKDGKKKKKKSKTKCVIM
T4 sequence (P01116 1-188 isoform P01116-2): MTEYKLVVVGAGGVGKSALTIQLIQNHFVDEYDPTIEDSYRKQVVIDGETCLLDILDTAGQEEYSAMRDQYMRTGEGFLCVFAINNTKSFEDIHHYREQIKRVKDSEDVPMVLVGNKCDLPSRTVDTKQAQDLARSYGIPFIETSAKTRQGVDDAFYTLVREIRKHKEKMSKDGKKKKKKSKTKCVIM

SMILES | IC50 (A549 cells) | IC50 (K-Ras G12V) | IC50 (SW620 cells) | IC50 (K-Ras G12S) | IC50 (K-Ras G12D) | IC50 (K-Ras WT) | IC50 (GP2D cells)
C[C@@H](O)[C@H]1COc2c(Cl)c(-c3ccc(F)c4sc(N)c(C#N)c34)c(F)c3nc(OC[C@@]45CCCN4C[C@H](F)C5)nc(c23)N1CCC(F)F (single isomer, unassigned) [Compound 820] | < 5000 nM | < 100 nM | < 5000 nM | < 100 nM | < 100 nM | < 100 nM | < 500 nM
C=C[C@H]1COc2c(Cl)c(-c3ccc(F)c4sc(N)c(C#N)c34)c(F)c3nc(OC[C@@]45CCCN4C[C@H](F)C5)nc(c23)N1CC(F)F (single isomer, unassigned) [Compound 890] | < 5000 nM | < 100 nM | < 5000 nM | < 100 nM | < 100 nM | < 100 nM | < 500 nM
CC(O)C1COc2c(Cl)c(-c3ccc(F)c4sc(N)c(C#N)c34)c(F)c3nc(OC[C@@]45CCCN4C[C@H](F)C5)nc(c23)N1CC(F)F (single isomer, unassigned) [Compound 899] | < 5000 nM | < 100 nM | < 5000 nM | < 100 nM | < 100 nM | < 100 nM | < 500 nM
N#Cc1c(N)sc2c(F)ccc(-c3c(Cl)c4c5c(nc(OC[C@@]67CCCN6C[C@H](F)C7)nc5c3F)N(CC(F)F)C(CCO)CO4)c12 (single isomer, unassigned) [Compound 1049] | < 5000 nM | < 100 nM | < 5000 nM | < 100 nM | < 100 nM | < 100 nM | < 500 nM
N#Cc1c(N)sc2c(F)ccc(-c3c(Cl)c4c5c(nc(OC[C@@]67CCCN6C[C@H](F)C7)nc5c3F)N(CC(F)F)CCC(CO)O4)c12 (single isomer, unassigned) [Compound 1207] | < 5000 nM | < 100 nM | < 5000 nM | < 100 nM | < 100 nM | < 100 nM | < 500 nM
N#Cc1c(N)sc2c(F)ccc(-c3c(Cl)c4c5c(nc(OC[C@@]67CCCN6C[C@H](F)C7)nc5c3F)N(C3CC(NC(=O)C(F)F)C3)CCO4)c12 (stereo partly drawn) [Compound 612, N-(3-(9-(2-amino-3-cyano-7-fluorobenzo[b]thiophen-4-yl)-8-chloro-10-fluoro-2-(((2R,7aS)-2-fluorotetrahydro-1H-pyrrolizin-7a(5H)-yl)methoxy)-5,6-dihydro-4H-[1,4]oxazepino[5,6,7-de]quinazolin-4-yl)cyclobutyl)-2,2-difluoroacetamide] | < 5000 nM | < 100 nM | < 5000 nM | < 100 nM | < 100 nM | < 100 nM | < 500 nM
CN(CCN1CCOc2c(Cl)c(-c3ccc(F)c4sc(N)c(C#N)c34)c(F)c3nc(OC[C@@]45CCCN4C[C@H](F)C5)nc1c23)C(=O)[C@@H]1N[C@H]1C1CC1 [Compound 613, (2R,3S)-N-(2-(9-(2-amino-3-cyano-7-fluorobenzo[b]thiophen-4-yl)-8-chloro-10-fluoro-2-(((2R,7aS)-2-fluorotetrahydro-1H-pyrrolizin-7a(5H)-yl)methoxy)-5,6-dihydro-4H-[1,4]oxazepino[5,6,7-de]quinazolin-4-yl)ethyl)-3-cyclopropyl-N-methylaziridine-2-carboxamide] | < 5000 nM | < 100 nM | < 5000 nM | < 100 nM | < 100 nM | < 100 nM | < 500 nM
N#Cc1c(N)sc2c(F)ccc(-c3c(Cl)c4c5c(nc(OC[C@@]67CCCN6C[C@H](F)C7)nc5c3F)N([C@@H]3CCOC3)CCO4)c12 [Compound 617, 2-amino-4-(8-chloro-10-fluoro-2-(((2R,7aS)-2-fluorotetrahydro-1H-pyrrolizin-7a(5H)-yl)methoxy)-4-((R)-tetrahydrofuran-3-yl)-5,6-dihydro-4H-[1,4]oxazepino[5,6,7-de]quinazolin-9-yl)-7-fluorobenzo[b]thiophene-3-carbonitrile] | < 5000 nM | < 100 nM | < 5000 nM | < 100 nM | < 100 nM | < 100 nM | < 500 nM
C[C@H](Oc1nc2c3c(c(Cl)c(-c4ccc(F)c5sc(N)c(C#N)c45)c(F)c3n1)OCCN2[C@@H]1CCN(C=O)C1)[C@@H]1CCCN1C [Compound 621, 2-amino-4-(8-chloro-10-fluoro-4-((R)-1-formylpyrrolidin-3-yl)-2-((S)-1-((S)-1-methylpyrrolidin-2-yl)ethoxy)-5,6-dihydro-4H-[1,4]oxazepino[5,6,7-de]quinazolin-9-yl)-7-fluorobenzo[b]thiophene-3-carbonitrile] | < 5000 nM | < 100 nM | < 5000 nM | < 100 nM | < 100 nM | < 100 nM | < 500 nM
CN1CCC(N2CCOc3c(Cl)c(-c4ccc(F)c5sc(N)c(C#N)c45)c(F)c4nc(OC[C@@]56CCCN5C[C@H](F)C6)nc2c34)C1=O (stereo partly drawn) [Compound 624, 2-amino-4-(8-chloro-10-fluoro-2-(((2R,7aS)-2-fluorotetrahydro-1H-pyrrolizin-7a(5H)-yl)methoxy)-4-(1-methyl-2-oxopyrrolidin-3-yl)-5,6-dihydro-4H-[1,4]oxazepino[5,6,7-de]quinazolin-9-yl)-7-fluorobenzo[b]thiophene-3-carbonitrile] | < 5000 nM | < 100 nM | < 5000 nM | < 100 nM | < 100 nM | < 100 nM | < 500 nM
N#Cc1c(N)sc2c(F)ccc(-c3c(Cl)c4c5c(nc(OC[C@@]67CCCN6C[C@H](F)C7)nc5c3F)N(C3CCOC3)CC(CF)O4)c12 (stereo partly drawn) [Compound 628, 2-amino-4-(8-chloro-10-fluoro-6-(fluoromethyl)-2-(((2R,7aS)-2-fluorotetrahydro-1H-pyrrolizin-7a(5H)-yl)methoxy)-4-(tetrahydrofuran-3-yl)-5,6-dihydro-4H-[1,4]oxazepino[5,6,7-de]quinazolin-9-yl)-7-fluorobenzo[b]thiophene-3-carbonitrile] | < 5000 nM | < 100 nM | < 5000 nM | < 100 nM | < 100 nM | < 100 nM | < 500 nM
N#Cc1c(N)sc2c(F)ccc(-c3c(Cl)c4c5c(nc(OC[C@@]67CCCN6C[C@H](F)C7)nc5c3F)N(CC(F)F)CC(C(F)(F)F)O4)c12 (stereo partly drawn) [Compound 1008, 2-amino-4-(8-chloro-4-(2,2-difluoroethyl)-10-fluoro-2-(((2R,7aS)-2-fluorotetrahydro-1H-pyrrolizin-7a(5H)-yl)methoxy)-6-(trifluoromethyl)-5,6-dihydro-4H-[1,4]oxazepino[5,6,7-de]quinazolin-9-yl)-7-fluorobenzo[b]thiophene-3-carbonitrile] | < 5000 nM | < 100 nM | < 5000 nM | – | < 100 nM | < 100 nM | < 500 nM
N#Cc1c(N)sc2c(F)ccc(-c3c(Cl)c4c5c(nc(OC[C@@]67CCCN6C[C@H](F)C7)nc5c3F)N(CC(F)F)C(C(F)F)CO4)c12 (stereo partly drawn) [Compound 1105, 2-amino-4-(8-chloro-4-(2,2-difluoroethyl)-5-(difluoromethyl)-10-fluoro-2-(((2R,7aS)-2-fluorotetrahydro-1H-pyrrolizin-7a(5H)-yl)methoxy)-5,6-dihydro-4H-[1,4]oxazepino[5,6,7-de]quinazolin-9-yl)-7-fluorobenzo[b]thiophene-3-carbonitrile] | < 5000 nM | – | < 5000 nM | < 100 nM | < 100 nM | < 100 nM | < 500 nM
N#Cc1c(N)sc2c(F)ccc(-c3c(Cl)c4c5c(nc(OC[C@@]67CCCN6C[C@H](F)C7)nc5c3F)N(C3CC3)CCCO4)c12 [Compound 1204, 2-amino-4-(9-chloro-4-cyclopropyl-11-fluoro-2-(((2R,7aS)-2-fluorotetrahydro-1H-pyrrolizin-7a(5H)-yl)methoxy)-4,5,6,7-tetrahydro-[1,5]oxazocino[4,3,2-de]quinazolin-10-yl)-7-fluorobenzo[b]thiophene-3-carbonitrile] | < 5000 nM | – | < 5000 nM | – | – | – | < 500 nM
